Laboratory results: US11040035B2, “3-oxo-2,6-diphenyl-2,3-dihydropyridazine-4-carboxamides” (BAYER PHARMA AKTIENGESELLSCHAFT, priority 2016, dated 2021)
pIC50: −log10 of the molar value.

Assays:
AHR [1] = biological target: T1, AHR (Homo sapiens, UniProt P35869); assay: In vitro assay 1: antagonism in human cell line (transactivation assay, kynurenic acid prestimulated); conditions: Assay 1: AHR-luc Hum Antagonism IC50 [M], 150 μM kynurenic acid, 20 hours, firefly luciferase
T1 sequence (P35869 11-848): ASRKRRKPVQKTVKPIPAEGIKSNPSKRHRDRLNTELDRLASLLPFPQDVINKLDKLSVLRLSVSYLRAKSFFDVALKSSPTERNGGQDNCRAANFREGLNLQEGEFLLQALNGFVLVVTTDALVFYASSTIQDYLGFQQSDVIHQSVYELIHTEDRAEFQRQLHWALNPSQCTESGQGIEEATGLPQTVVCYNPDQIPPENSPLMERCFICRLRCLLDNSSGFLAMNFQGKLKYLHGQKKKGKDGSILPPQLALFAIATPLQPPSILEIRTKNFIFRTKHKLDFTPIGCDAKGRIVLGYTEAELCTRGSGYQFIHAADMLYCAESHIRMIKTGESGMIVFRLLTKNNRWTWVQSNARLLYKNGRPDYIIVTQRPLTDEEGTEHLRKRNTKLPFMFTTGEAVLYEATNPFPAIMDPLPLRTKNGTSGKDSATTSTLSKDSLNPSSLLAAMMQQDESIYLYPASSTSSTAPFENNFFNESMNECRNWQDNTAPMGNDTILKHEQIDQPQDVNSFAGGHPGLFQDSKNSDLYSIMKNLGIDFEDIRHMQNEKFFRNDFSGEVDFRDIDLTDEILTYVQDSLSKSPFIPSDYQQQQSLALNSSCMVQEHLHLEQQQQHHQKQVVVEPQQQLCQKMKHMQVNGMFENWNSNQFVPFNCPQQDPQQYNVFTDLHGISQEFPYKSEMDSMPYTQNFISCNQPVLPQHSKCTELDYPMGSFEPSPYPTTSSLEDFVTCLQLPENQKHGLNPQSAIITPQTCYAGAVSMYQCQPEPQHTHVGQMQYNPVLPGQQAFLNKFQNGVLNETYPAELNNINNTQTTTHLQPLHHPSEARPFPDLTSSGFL
Procedure: Transactivation assays were carried out in U87 glioblastoma cells (ATCC) endogenously expressing AHR. In addition the cells were stably transfected with an AHR inducible firefly luciferase reporter gene construct that carried AHR-binding sites (DRE) in its promoter and a renilla reporter gene construct with constitutively active promoter. Kynurenic acid is an endogenous AHR activating ligand and was used to prestimulate test cells prior to testing the antagonistic properties of compounds.
In Vitro Assay 1: Antagonism in Human Cell Line
Cells in medium (tryptophan free RPMI, 1% FCS, 2 mM Glutamine) supplemented with 150 μM kynurenic acid were grown for 20 hours in absence (negative control) or presence of increasing concentrations of test compounds (typical dilutions: 72 pmol/L, 0.25 nmol/L, 0.89 nmol/L; 3.1 nmol/L, 11 nmol/L, 38 nmol/L, 130 nmol/L, 470 nmol/L, 1.6 μmol/L, 5.7 μmol/L and 20 μmol/L in duplicates). As positive inhibition control cells supplemented with 150 μM kynurenic acid were incubated in presence of 5 μM Staurosporin. Normalization was done by positive and negative controls.
Firefly luciferase and Renilla activity was determined by the DualGlo Luciferase Assay System (Promega, #2920).

AHR [2] = biological target: T1, AHR; assay: In vitro assay 2: agonism in human cell line (transactivation assay); conditions: for IC50: Assay 2: AHR-luc Hum Agonism IC50 [M], no kynurenic acid, 20 hours, firefly luciferase; for pIC50: read-out: Assay 2: AHR-luc Hum Agonism IC50, no kynurenic acid, 20 hours, firefly luciferase

IC50 (AHR [1]) [M] | IC50 (AHR [2]) [M] | pIC50 (AHR [2]) | Structure (SMILES)
3.7e-07 | > 2e-05 | – | O=C(NC(CO)C1CCCO1)c1cc(-c2ccc(Cl)cc2)nn(-c2cccc(F)c2)c1=O (single isomer, unassigned) [Example 316, 1,4-anhydro-5-({[6-(4-chlorophenyl)-2-(3-fluorophenyl)-3-oxo-2,3-dihydropyridazin-4-yl]carbonyl}amino)-2,3,5-trideoxyhexitol]
2.13e-07 | > 2e-05 | – | CC(O)CCNC(=O)c1cc(-c2ccc(Cl)cc2)nn(-c2cccc(F)c2)c1=O (racemic) [Example 203, 6-(4-Chlorophenyl)-2-(3-fluorophenyl)-N-[(3RS)-3-hydroxybutyl]-3-oxo-2,3-dihydropyridazine-4-carboxamide]
1.04e-07 | > 2e-05 | – | O=C(NCC1(O)CC1)c1cc(-c2ccc(Cl)cc2)nn(-c2cccc(F)c2)c1=O [Example 196, 6-(4-Chlorophenyl)-2-(3-fluorophenyl)-N-[(1-hydroxycyclopropyl)methyl]-3-oxo-2,3-dihydropyridazine-4-carboxamide]
8.72e-08 | > 2e-05 | – | COc1ccc(-c2cc(C(=O)N[C@@H](C)CO)c(=O)n(-c3cccc(F)c3)n2)cc1 [Example 297, 2-(3-Fluorophenyl)-N-[(2S)-1-hydroxypropan-2-yl]-6-(4-methoxyphenyl)-3-oxo-2,3-dihydropyridazine-4-carboxamide]
3.57e-07 | > 2e-05 | – | COCCC(CO)NC(=O)c1cc(-c2ccc(Cl)cc2)nn(-c2cccc(F)c2)c1=O (racemic) [Example 227, 6-(4-Chlorophenyl)-2-(3-fluorophenyl)-N-[(2RS)-1-hydroxy-4-methoxybutan-2-yl]-3-oxo-2,3-dihydropyridazine-4-carboxamide]
1.74e-07 | > 2e-05 | – | COCC(O)CNC(=O)c1cc(-c2ccc(C)cc2)nn(-c2cccc(F)c2)c1=O (stereo not drawn) [Example 16, 2-(3-Fluorophenyl)-N-(2-hydroxy-3-methoxypropyl)-6-(4-methylphenyl)-3-oxo-2,3-dihydropyridazine-4-carboxamide]
2.64e-07 | > 2e-05 | – | CC(C)(O)CCNC(=O)c1cc(-c2ccc(Cl)cc2)nn(-c2cccc(F)c2)c1=O [Example 321, 6-(4-chlorophenyl)-2-(3-fluorophenyl)-N-(3-hydroxy-3-methylbutyl)-3-oxo-2,3-dihydropyridazine-4-carboxamide]
3.62e-07 | > 2e-05 | – | O=C(NCCC1(O)CCCCC1)c1cc(-c2ccc(Cl)cc2)nn(-c2cccc(F)c2)c1=O [Example 320, 6-(4-chlorophenyl)-2-(3-fluorophenyl)-N-[2-(1-hydroxycyclohexyl)ethyl]-3-oxo-2,3-dihydropyridazine-4-carboxamide]
3.11e-07 | > 2e-05 | – | COCC(O)CNC(=O)c1cc(-c2ccc(OC(F)F)cc2)nn(-c2cccc(F)c2)c1=O (stereo not drawn) [Example 160, 6-[4-(Difluoromethoxy)phenyl]-2-(3-fluorophenyl)-N-(2-hydroxy-3-methoxypropyl)-3-oxo-2,3-dihydropyridazine-4-carboxamide]
1e-07 | > 2e-05 | – | CC(C)[C@@H](CO)NC(=O)c1cc(-c2ccc(Cl)c(F)c2)nn(-c2cc(F)cc(F)c2)c1=O [Example 401, 6-(4-chloro-3-fluorophenyl)-2-(3,5-difluorophenyl)-N-[(2S)-1-hydroxy-3-methylbutan-2-yl]-3-oxo-2,3-dihydropyridazine-4-carboxamide]
4.99e-08 | > 2e-05 | – | CC[C@@H](CO)NC(=O)c1cc(-c2ccc(OC(F)F)cc2)nn(-c2cccc(F)c2)c1=O [Example 137, 6-[4-(Difluoromethoxy)phenyl]-2-(3-fluorophenyl)-N-[(2S)-1-hydroxybutan-2-yl]-3-oxo-2,3-dihydropyridazine-4-carboxamide]
1.17e-07 | – | < 4.70 | O=C(NC(CO)C1CCOC1)c1cc(-c2ccc(Cl)cc2)nn(-c2cccc(F)c2)c1=O (single isomer, unassigned) [Example 40, 6-(4-Chlorophenyl)-2-(3-fluorophenyl)-N-[2-hydroxy-1-(tetrahydrofuran-3-yl)ethyl]-3-oxo-2,3-dihydropyridazine-4-carboxamide]
1.3e-07 | > 2e-05 | – | O=C(N[C@H]1C[C@H](CO)C1)c1cc(-c2ccc(Cl)cc2)nn(-c2cccc(F)c2)c1=O [Example 396, 6-(4-chlorophenyl)-2-(3-fluorophenyl)-N-[trans-3-(hydroxymethyl)cyclobutyl]-3-oxo-2,3-dihydropyridazine-4-carboxamide]
1.32e-07 | > 2e-05 | – | COc1ccc(-c2cc(C(=O)N[C@@H]3CCCC[C@H]3O)c(=O)n(-c3cccc(F)c3)n2)cc1 (relative stereo) [Example 152, 2-(3-Fluorophenyl)-N-trans-2-hydroxycyclohexyl-6-(4-methoxyphenyl)-3-oxo-2,3-dihydropyridazine-4-carboxamide]
2.76e-08 | > 2e-05 | – | O=C(NC(CO)C1CCOC1)c1cc(-c2ccc(Cl)cc2)nn(-c2cccc(F)c2)c1=O (single isomer, unassigned) [Example 39]
1.09e-07 | > 2e-05 | – | O=C(NC(CO)Cc1ccncc1)c1cc(-c2ccc(Cl)cc2)nn(-c2cccc(F)c2)c1=O (racemic) [Example 334, 6-(4-chlorophenyl)-2-(3-fluorophenyl)-N-[(2RS)-1-hydroxy-3-(pyridin-4-yl)propan-2-yl]-3-oxo-2,3-dihydropyridazine-4-carboxamide]
1.37e-07 | > 2e-05 | – | O=C(NC(CO)C1CCCO1)c1cc(-c2ccc(Cl)cc2)nn(-c2cccc(F)c2)c1=O (racemic) [Example 230, 3,6-Anhydro-2-({[6-(4-chlorophenyl)-2-(3-fluorophenyl)-3-oxo-2,3-dihydropyridazin-4-yl]carbonyl}amino)-2,4,5-trideoxy-DL-erythro-hexitol and 1,4-anhydro-5-({[6-(4-chlorophenyl)-2-(3-fluorophenyl)-3-oxo-2,3-dihydropyridazin-4-yl]carbonyl}amino)-2,3,5-trideoxy-DL-threo-hexitol]
1.86e-07 | – | < 4.70 | O=C(N[C@H]1CCC[C@@H]1O)c1cc(-c2ccc(Cl)cc2)nn(-c2cccc(F)c2)c1=O (single isomer, unassigned) [Example 125, 6-(4-Chlorophenyl)-2-(3-fluorophenyl)-N-(trans-2-hydroxycyclopentyl)-3-oxo-2,3-dihydropyridazine-4-carboxamide]
2.52e-08 | > 2e-05 | – | O=C(NC(CO)C1CC1)c1cc(-c2ccc(Cl)cc2)nn(-c2cccc(F)c2)c1=O (racemic) [Example 193, 6-(4-Chlorophenyl)-N-[(1RS)-1-cyclopropyl-2-hydroxyethyl]-2-(3-fluorophenyl)-3-oxo-2,3-dihydropyridazine-4-carboxamide]
1.2e-07 | > 2e-05 | – | Cc1ccc(-c2cc(C(=O)NCC(O)C(C)C)c(=O)n(-c3cccc(F)c3)n2)cc1 (stereo not drawn) [Example 10, 2-(3-Fluorophenyl)-N-(2-hydroxy-3-methylbutyl)-6-(4-methylphenyl)-3-oxo-2,3-dihydropyridazine-4-carboxamide]
2.22e-07 | > 2e-05 | – | O=C(N[C@H](CO)C1CCCC1)c1cc(-c2ccc(Cl)cc2)nn(-c2cccc(F)c2)c1=O [Example 157, 6-(4-Chlorophenyl)-N-[(1S)-1-cyclopentyl-2-hydroxyethyl]-2-(3-fluorophenyl)-3-oxo-2,3-dihydropyridazine-4-carboxamide]
1.43e-07 | > 2e-05 | – | Cc1ccc(-c2cc(C(=O)NCC(C)O)c(=O)n(-c3cccc(F)c3)n2)cc1 (stereo not drawn) [Example 13, 2-(3-Fluorophenyl)-N-(2-hydroxypropyl)-6-(4-methylphenyl)-3-oxo-2,3-dihydropyridazine-4-carboxamide]
1.09e-08 | > 2e-05 | – | COc1ccc(-c2cc(C(=O)NC(CO)C(F)(F)F)c(=O)n(-c3cccc(F)c3)n2)cc1 (stereo not drawn) [Example 100, 2-(3-Fluorophenyl)-6-(4-methoxyphenyl)-3-oxo-N-(1,1,1-trifluoro-3-hydroxypropan-2-yl)-2,3-dihydropyridazine-4-carboxamide]
4.46e-07 | > 2e-05 | – | O=C(NC(CCO)C(F)(F)F)c1cc(-c2ccc(Cl)cc2)nn(-c2cccc(F)c2)c1=O (single isomer, unassigned; (-)) [Example 342, (−)-6-(4-chlorophenyl)-2-(3-fluorophenyl)-3-oxo-N-(1,1,1-trifluoro-4-hydroxybutan-2-yl)-2,3-dihydropyridazine-4-carboxamide]
